Patent US10093656B2, “Fused-ring or tricyclic aryl pyrimidine compound used as kinase inhibitor” (NANJING SANHOME PHARMACEUTICAL CO., LTD, priority 2015, dated 2018)

System: NCI-H1975 lung cancer patient-derived xenograft (CDX)
Test: Pharmacodynamics study in vivo, NCI-H1975 xenograft (CDX) model
Parameters: species or system BALB/c nude mice
Settings: AZD9291 5 mg/kg
In short: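 Tumour volume, from two-dimensional caliper readings twice a week as V = 0.5 a×b2, followed over 21 days of daily oral dosing at 10 or 20 mg/kg. Hosts were female BALB/c nude mice, 6-8 weeks, bearing subcutaneous NCI-H1975 implants grown to about 150-200 mm^3 before treatment.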

`C=CC(=O)Nc1cc(Nc2ncc(F)c(-c3c4n(c5cc(F)ccc35)CCOC4)n2)c(OC)cc1N(C)CCN(C)C` [Embodiment 33, N-(2-((2-(Dimethylamino)ethyl)(methyl)amino)-5-((5-fluoro-4-(7-fluoro-3,4-dihydro-1H-[1,4]oxazino[4,3-a]indol-10-yl)pyrimidin-2-yl)amino)-4-methoxyphenyl)acrylamide] was tested, and the “Tumor Volume (mm^3) 4 days” value (day 4, oral daily: compound 30 10 mg/kg, 33, 34, 40, 42, 43 20 mg/kg) was 91 mm^3, the “Tumor Volume (mm^3) 7 days” value (day 7, oral daily: compound 30 10 mg/kg, 33, 34, 40, 42, 43 20 mg/kg) was 68 mm^3 and the “Tumor Volume (mm^3) 11 days” value (day 11, oral daily: compound 30 10 mg/kg, 33, 34, 40, 42, 43 20 mg/kg) was 43 mm^3. The “Tumor Volume (mm^3) 14 days” value (day 14, oral daily: compound 30 10 mg/kg, 33, 34, 40, 42, 43 20 mg/kg) was 27 mm^3, the “Tumor Volume (mm^3) 18 days” value (day 18, oral daily: compound 30 10 mg/kg, 33, 34, 40, 42, 43 20 mg/kg) was 9 mm^3 and the “Tumor Volume (mm^3) 21 days” value (day 21, oral daily: compound 30 10 mg/kg, 33, 34, 40, 42, 43 20 mg/kg) was 3 mm^3.
